Laboratory results published in US20250262279A1, “DOSE REGIMEN FOR LONG-ACTING GLP1/GLUCAGON RECEPTOR AGONISTS” (Boehringer Ingelheim International GmbH, priority 2021, published 2025).

What was measured:
[1] = first-in-man Phase I single-rising-dose study, adverse events; format: in vivo, human
Experimental: Compound I was recently studied in a first-in-man Phase I single-rising-dose study. In this study, a dose of 0.3 mg led to ‘mild loss of appetite’ in 33% of healthy subjects. This specific AE increased to 50% in the 0.5 mg dose group. Dose escalation to 1.2 mg was associated with 83% of the subjects experiencing moderate to severe nausea for 1 to 6 days and mild to severe vomiting.

[2] = Example 3: safety (AEs, laboratory, ECG, vital signs, NASH scores); format: in vivo, human
Experimental: • Semaglutide • Dose: 0.25, 0.25, 0.25, 0.25, 0.5, 0.5, 0.5, 0.5, 1.0 mg (weeks 9−16) once weekly • Mode of administration: Solution for injection
Safety endpoints included Columbia-Suicide Severity Rating Scale (C-SSRS) and various electrocardiograms (ECG) assessments. Safety was assessed based on adverse events (AEs), adverse event of special interest (AESIs), clinical laboratory assessments, vital signs, and physical examination. AESIs were pre-specified in the protocol as pancreatitis and hepatic injury.
Analyses of safety were descriptive.

[3] = Example 2 Phase I study in healthy Japanese men: safety and tolerability; format: in vivo, human
Text: This study was a randomised, placebo-controlled, single-blind, and parallel-group clinical trial with up to 3 dose-escalation schemes (Dose Groups [DGs]1 to 3) in healthy Japanese male subjects with BMI 23 to 40 kg/m^2. The weekly (DG1 and DG2) or twice a week (DG3) dosing in this scheme allowed for immediate clinical evaluation whether a further increase in the cumulative weekly dose was safe and well tolerated. The treatment duration was 16 weeks in total including a dose escalation phase to minimize Gastrointestinal (GI) Adverse Events (AEs) of Compound I. This was followed by a 4-week follow-up period.
The primary endpoint to assess the safety and tolerability of Compound I was the cumulative percentage (%) of subjects withdrawn from the up-titration by the dose escalation scheme.
• AEs (including clinically relevant findings from the physical examination) • Safety laboratory tests • 12-lead electrocardiogram (ECG) • Continuous ECG monitoring • Vital signs (blood pressure, pulse rate) • Columbia-Suicide Severity Rating Scale (C-SSRS) • Change from baseline in heart rate following treatment with Compound I relative to placebo (until 24 hours after Compound I administration) • The cumulative number [N (%)] of subjects withdrawn from the up-titration by the dose escalation scheme and week
The main objective of this trial was to assess the safety and tolerability of Compound I as well as PK and PD parameters by using descriptive statistics for all endpoints, which were compared across treatment groups. Further analysis comprised linear modelling for attainment of steady state in DG1.

[4] = Example 1 Phase I titration study in obesity/overweight: safety and tolerability
Text: Blinded within dose groups, randomised, placebo-controlled
• Male patients (Part A); male and female patients (Part B) • Age 18 to <70 years • BMI 27 to <40 kg/m^2 • Body weight of at least 70 kg for women and 80 kg for men • Stable body weight, defined as no more than 5% change within 3 months prior to screening
Further criteria of interest: • AEs (including clinically relevant findings from the physical examination and assessment of local tolerability) • Safety laboratory tests • 12-lead ECG • Vital signs (blood pressure, pulse rate) • Continuous ECG (including mean daily heart rate) • Assessment of local tolerability by the investigator • The cumulative number [N (%)] of patients withdrawn from up-titration by up-titration scheme and week
Descriptive statistics were calculated for all endpoints. […] No formal interim analysis was conducted. Data from the completed 6-week cohorts were analysed before database lock for internal decision-making.

[5] = plasma half-life in humans; format: in vivo; settings: human, estimated
[6] = Ex.1 Part B, Weekly 6 (twice weekly)

CC[C@H](C)[C@H](NC(=O)[C@H](Cc1ccccc1)NC(=O)[C@H](CC(=O)O)NC(=O)[C@H](CCCCN)NC(=O)[C@H](C)NC(=O)[C@H](C)NC(=O)[C@H](CCCNC(=N)N)NC(=O)[C@H](CCC(=O)O)NC(=O)[C@H](CC(=O)O)NC(=O)[C@H](CC(C)C)NC(=O)[C@H](Cc1ccc(O)cc1)NC(=O)[C@H](CCCCN)NC(=O)[C@H](CO)NC(=O)[C@H](Cc1ccc(O)cc1)NC(=O)[C@H](CC(=O)O)NC(=O)[C@H](CO)NC(=O)[C@@H](NC(=O)[C@H](Cc1ccccc1)NC(=O)[C@@H](NC(=O)CNC(=O)[C@H](CCC(N)=O)NC(=O)C1(NC(=O)[C@@H](N)Cc2c[nH]cn2)CCC1)[C@@H](C)O)[C@@H](C)O)C(=O)N[C@@H](CCCCNC(=O)CNC(=O)CNC(=O)[C@H](CO)NC(=O)CNC(=O)[C@H](CO)NC(=O)CNC(=O)CC[C@H](NC(=O)CCCCCCCCCCCCCCCCC(=O)O)C(=O)O)C(=O)N[C@@H](Cc1c[nH]c2ccccc12)C(=O)N[C@@H](CC(C)C)C(=O)N[C@@H](CCC(=O)O)C(=O)N[C@@H](CO)C(=O)N[C@@H](C)C(N)=O [Compound I]
healthy subjects with mild loss of appetite ([1]; single dose 0.3 mg): 33% | healthy subjects with mild loss of appetite ([1]; single dose 0.5 mg): 50% | subjects with moderate to severe nausea for 1 to 6 days and mild to severe vomiting ([1]; single dose 1.2 mg): 83% | deaths ([2]; Ex.3, whole trial): no deaths | AEs of special interest, percentage of patients ([2]; in vivo): (0.3) interest % | cases of pancreatitis ([2]; in vivo): no cases of pancreatitis | AEs in the cardiac disorder class ([3]; Ex.2): no AEs reported | clinical laboratory values ([3]; Ex.2): Findings of clinical relevance were not observed | deaths and AEs of special interest ([3]; Ex.2): neither deaths nor AEs of special interest reported | vital signs, ECG evaluation, local tolerability, suicidal risk assessment ([3]; Ex.2): No clinically relevant findings | Subjects with investigator defined drug-related AEs ([3]; Ex.2 Cmp I Total): 27 N | Number of subjects withdrawn from the up-titration ([3]; Ex.2 Compound I Total): 10 N | pulse rate ([3]; Ex.2 Compound I dosing groups): expected increase in pulse rate | Number of subjects withdrawn from the up-titration ([3]; Ex.2 DG1): 2 N | subjects with AE decreased appetite ([3]; Ex.2 DG1): 8 subjects | subjects with AE decreased appetite ([3]; Ex.2 DG1, of 9 trial subjects): 88.9% | Number of subjects withdrawn from the up-titration ([3]; Ex.2 DG2): 6 N | subjects with AE decreased appetite ([3]; Ex.2 DG2): 9 subjects | subjects with severe vomiting ([3]; Ex.2 DG2): 1 subject | subjects with AE decreased appetite ([3]; Ex.2 DG2, of 9 trial subjects): 100.0% | subjects with severe vomiting ([3]; Ex.2 DG2, of 9 trial subjects): 11.1% | subjects with AE decreased appetite ([3]; Ex.2 DG3): 7 subjects | subjects with severe diarrhoea ([3]; Ex.2 DG3): 1 subject | Number of subjects withdrawn from the up-titration ([3]; Ex.2 DG3 (twice weekly)): 2 N | subjects with AE decreased appetite ([3]; Ex.2 DG3, of 9 trial subjects): 77.8% | subjects with severe diarrhoea ([3]; Ex.2 DG3, of 9 trial subjects): 11.1% | clinical laboratory analyses ([4]; Ex.1 Part A): no treatment-emergent clinically relevant findings | deaths ([4]; Ex.1 Part A): No patients died | Patients withdrawn from up-titration ([4]; Ex.1 Part A (6 wk), Compound I total): 27 (40.3) N (%) | Patients withdrawn from up-titration ([4]; Ex.1 Part A (6 wk), Weekly 1): 6 (35.3) N (%) | Patients withdrawn from up-titration ([4]; Ex.1 Part A (6 wk), Weekly 2): 8 (44.4) N (%) | Patients withdrawn from up-titration ([4]; Ex.1 Part A (6 wk), Weekly 3): 13 (76.5) N (%) | Patients with AE leading to discontinuation of trial drug ([4]; Ex.1 Part A, Cmp I total): 5 (7.5) N (%) | Patients with any AE ([4]; Ex.1 Part A, Cmp I total): 67 (100) N (%) | Patients with investigator defined drug-related AE ([4]; Ex.1 Part A, Cmp I total): 67 (100) N (%) | Patients with other significant AEs (ICH E3) ([4]; Ex.1 Part A, Cmp I total): 5 (7.5) N (%) | Patients with serious AE ([4]; Ex.1 Part A, Cmp I total): 1 (1.5) N (%) | Patients with severe AE ([4]; Ex.1 Part A, Cmp I total): 3 (4.5) N (%) | Patients with AE leading to discontinuation of trial drug ([4]; Ex.1 Part A, Daily): 0 N (%) | Patients with any AE ([4]; Ex.1 Part A, Daily): 15 (100) N (%) | Patients with investigator defined drug-related AE ([4]; Ex.1 Part A, Daily): 15 (100) N (%) | Patients with other significant AEs (ICH E3) ([4]; Ex.1 Part A, Daily): 0 N (%) | Patients with serious AE ([4]; Ex.1 Part A, Daily): 0 N (%) | Patients with severe AE ([4]; Ex.1 Part A, Daily): 0 N (%) | drug-related abdominal distension, frequency ([4]; Ex.1 Part A, Daily): 13.3% | drug-related cardiac disorders ([4]; Ex.1 Part A, Daily): No drug-related cardiac disorders were reported | drug-related vomiting, frequency ([4]; Ex.1 Part A, Daily): no cases | Patients with AE leading to discontinuation of trial drug ([4]; Ex.1 Part A, Weekly 1): 1 (5.9) N (%) | Patients with any AE ([4]; Ex.1 Part A, Weekly 1): 17 (100) N (%) | Patients with investigator defined drug-related AE ([4]; Ex.1 Part A, Weekly 1): 17 (100) N (%) | Patients with other significant AEs (ICH E3) ([4]; Ex.1 Part A, Weekly 1): 1 (5.9) N (%) | Patients with serious AE ([4]; Ex.1 Part A, Weekly 1): 0 N (%) | Patients with severe AE ([4]; Ex.1 Part A, Weekly 1): 1 (5.9) N (%) | proportion of patients who withdrew from up-titration ([4]; Ex.1 Part A, Weekly 1): 35.3% | patients with severe diarrhoea ([4]; Ex.1 Part A, Weekly 1 and Weekly 2): 2 patients | Patients with AE leading to discontinuation of trial drug ([4]; Ex.1 Part A, Weekly 2): 2 (11.1) N (%) | Patients with any AE ([4]; Ex.1 Part A, Weekly 2): 18 (100) N (%) | Patients with investigator defined drug-related AE ([4]; Ex.1 Part A, Weekly 2): 18 (100) N (%) | Patients with other significant AEs (ICH E3) ([4]; Ex.1 Part A, Weekly 2): 2 (11.1) N (%) | Patients with serious AE ([4]; Ex.1 Part A, Weekly 2): 1 (5.6) N (%) | Patients with severe AE ([4]; Ex.1 Part A, Weekly 2): 2 (11.1) N (%) | patients with severe vomiting ([4]; Ex.1 Part A, Weekly 2): one | proportion of patients who withdrew from up-titration ([4]; Ex.1 Part A, Weekly 2): 44.4% | patients with serious AE ventricular tachycardia ([4]; Ex.1 Part A, Weekly 2, assessed as drug-related, led to discontinuation): One | Patients with AE leading to discontinuation of trial drug ([4]; Ex.1 Part A, Weekly 3): 2 (11.8) N (%) | Patients with any AE ([4]; Ex.1 Part A, Weekly 3): 17 (100) N (%) | Patients with investigator defined drug-related AE ([4]; Ex.1 Part A, Weekly 3): 17 (100) N (%) | Patients with other significant AEs (ICH E3) ([4]; Ex.1 Part A, Weekly 3): 2 (11.8) N (%) | Patients with serious AE ([4]; Ex.1 Part A, Weekly 3): 0 N (%) | Patients with severe AE ([4]; Ex.1 Part A, Weekly 3): 0 N (%) | proportion of patients who withdrew from up-titration ([4]; Ex.1 Part A, Weekly 3): 76.5% | proportion of patients who withdrew from up-titration ([4]; Ex.1 Part A, all Compound I groups): 40.3% | continuous ECG monitoring over 24 hours, mean heart rate ([4]; Ex.1 Part A, all Compound I treatment groups): increases in mean heart rate | clinical laboratory analyses ([4]; Ex.1 Part B): no treatment-emergent clinically relevant findings | deaths ([4]; Ex.1 Part B): No patients died | drug-related cardiac disorders ([4]; Ex.1 Part B): no cases | Patients withdrawn from up-titration ([4]; Ex.1 Part B (16 wk), Compound I total): 8 (22.2) N (%) | Patients withdrawn from up-titration ([4]; Ex.1 Part B (16 wk), Weekly 4): 3 (23.1) N (%) | Patients withdrawn from up-titration ([4]; Ex.1 Part B (16 wk), Weekly 5): 4 (36.4) N (%) | Patients withdrawn from up-titration ([4]; Ex.1 Part B (16 wk), Weekly 6 (twice weekly)): 1 (8.3) N (%) | Patients with AE leading to discontinuation of trial drug ([4]; Ex.1 Part B, Cmp I Total): 6 (16.7) N (%) | Patients with any AE ([4]; Ex.1 Part B, Cmp I Total): 35 (97.2) N (%) | Patients with investigator defined drug-related AE ([4]; Ex.1 Part B, Cmp I Total): 35 (97.2) N (%) | Patients with other significant AEs (ICH E3) ([4]; Ex.1 Part B, Cmp I Total): 8 (22.2) N (%) | Patients with serious AE ([4]; Ex.1 Part B, Cmp I Total): 0 N (%) | Patients with severe AE ([4]; Ex.1 Part B, Cmp I Total): 8 (22.2) N (%) | Patients with AE leading to discontinuation of trial drug ([4]; Ex.1 Part B, Weekly 4): 3 (23.1) N (%) | Patients with any AE ([4]; Ex.1 Part B, Weekly 4): 13 (100.0) N (%) | Patients with investigator defined drug-related AE ([4]; Ex.1 Part B, Weekly 4): 13 (100.0) N (%) | Patients with other significant AEs (ICH E3) ([4]; Ex.1 Part B, Weekly 4): 4 (30.8) N (%) | Patients with serious AE ([4]; Ex.1 Part B, Weekly 4): 0 N (%) | Patients with severe AE ([4]; Ex.1 Part B, Weekly 4): 4 (30.8) N (%) | drug-related gastrointestinal disorders, frequency ([4]; Ex.1 Part B, Weekly 4): 92.3% | Patients with AE leading to discontinuation of trial drug ([4]; Ex.1 Part B, Weekly 5): 2 (18.2) N (%) | Patients with any AE ([4]; Ex.1 Part B, Weekly 5): 11 (100.0) N (%) | Patients with investigator defined drug-related AE ([4]; Ex.1 Part B, Weekly 5): 11 (100.0) N (%) | Patients with other significant AEs (ICH E3) ([4]; Ex.1 Part B, Weekly 5): 3 (27.3) N (%) | Patients with serious AE ([4]; Ex.1 Part B, Weekly 5): 0 N (%) | Patients with severe AE ([4]; Ex.1 Part B, Weekly 5): 4 (36.4) N (%) | drug-related gastrointestinal disorders, frequency ([4]; Ex.1 Part B, Weekly 5): all patients | proportion of patients who withdrew from up-titration ([4]; Ex.1 Part B, Weekly 5): 36.4% | Patients with AE leading to discontinuation of trial drug [4, 6]: 1 (8.3) N (%) | Patients with any AE [4, 6]: 11 (91.7) N (%) | Patients with investigator defined drug-related AE [4, 6]: 11 (91.7) N (%) | Patients with other significant AEs (ICH E3) [4, 6]: 1 (8.3) N (%) | Patients with serious AE [4, 6]: 0 N (%) | Patients with severe AE [4, 6]: 0 N (%) | drug-related gastrointestinal disorders, frequency [4, 6]: 58.3% | proportion of patients who withdrew from up-titration [4, 6]: 8.3% | proportion of patients who withdrew from up-titration ([4]; Ex.1 Part B, all Compound I groups): 22.2% | ECG analyses, heart rate ([4]; Ex.1 Part B, all Compound I treatment groups): increases in heart rate | half-life [5]: ~110 h
